Test results as given in patent US11840686B2, “Modulation of prekallikrein (PKK) expression” (Ionis Pharmaceuticals, Inc., priority 2013, dated 2023).
Strand notation (5' to 3'): a small letter for the sugar, then the base; units joined by * are phosphorothioate-linked, units joined directly phosphodiester-linked; [ ] holds rarer units or linkages, { } end groups; capitals alone tell only the bases. e = 2'-O-(2-methoxyethyl) (MOE); [5mC] = 5-methylcytosine; d = 2'-deoxy (DNA)

Experiments:
[1] = system: human PKK mRNA; assay: Antisense inhibition of human PKK mRNA in HepaRG cells, 5,000 nM (Example 2); format: cell-based
Procedure, shortened: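 Chimeric MOE gapmers with full phosphorothioate backbones were tested once at 5,000 nM in electroporated HepaRG cells. After about 24 hours, quantitative PCR measured PKK mRNA relative to untreated control cells.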

[2] = system: human PKK mRNA; assay: Dose-dependent antisense inhibition of human PKK in HepaRG cells, 0.19-5.00 uM (Example 5); format: cell-based; conditions: HepaRG cells; for percent inhibition of PKK mRNA, 0.19 μM: 0.19 μM antisense oligonucleotide; for percent inhibition of PKK mRNA, 0.56 μM: 0.56 μM antisense oligonucleotide; for percent inhibition of PKK mRNA, 1.67 μM: 1.67 μM antisense oligonucleotide; for percent inhibition of PKK mRNA, 5.00 μM: 5.00 μM antisense oligonucleotide
Procedure, shortened: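 PKK mRNA knockdown was measured by real-time PCR (primer probe set RTS3454) about 16 h after electroporating 20,000 HepaRG cells per well with oligonucleotide at four doses from 0.19 to 5.00 μM. Levels were adjusted to RIBOGREEN-measured total RNA, and IC50 values were calculated.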

[3] = human PKK mRNA in HepaRG cells, 5-10-5 gapmers, Table 14
[4] = electroporation, approximately 16 hours, Table 35
[5] = 4 point dose response, Table 35
[6] = electroporation, approximately 16 hours, Table 38
[7] = 4 point dose response, Table 38
[8] = electroporation, approximately 16 hours, Table 39
[9] = 4 point dose response, Table 39
[10] = electroporation, approximately 16 hours, Table 36
[11] = electroporation, approximately 16 hours, Table 37
[12] = 4 point dose response, Table 37
[13] = human PKK mRNA, HepaRG cells, 5-10-5 motif oligonucleotides targeting SEQ ID NO: 1 and 10
[14] = HepaRG cells, 5,000 nM antisense oligonucleotide, 5-10-5 gapmers, Table 16
[15] = electroporation, approximately 16 hours, Table 40
[16] = 4 point dose response, Table 40
[17] = HepaRG cells, 5,000 nM antisense oligonucleotide, 5-10-5 gapmers, Table 17

547602 (antisense eT*e[5mC]*eA*e[5mC]*eT*dG*dT*dA*d[5mC]*d[5mC]*dT*dA*dT*dA*dA*e[5mC]*eT*e[5mC]*eT*eA) [compound 547602]
% inhibition [1, 3]: 93%
percent inhibition of PKK at 0.19 μM [2, 4]: 18%
percent inhibition of PKK at 0.56 μM [2, 4]: 53%
percent inhibition of PKK at 1.67 μM [2, 4]: 92%
percent inhibition of PKK at 5.00 μM [2, 4]: 87%
percent inhibition of PKK at 5.00 μM ([2]; electroporation, approximately 16 hours, Table 41): 93%
percent inhibition of PKK at 0.19 0μM ([2]; 0.19 0μM, electroporation, approximately 16 hours, Table 41): 1%
percent inhibition of PKK at 0.56 0μM ([2]; 0.56 0μM, electroporation, approximately 16 hours, Table 41): 9%
percent inhibition of PKK at 1.67 1μM ([2]; 1.67 1μM, electroporation, approximately 16 hours, Table 41): 52%
IC50 [2, 5]: 500 nM
IC50 ([2]; 4 point dose response, Table 41): 1400 nM

547615 (antisense eT*e[5mC]*e[5mC]*eT*eA*dT*dA*dT*d[5mC]*dA*d[5mC]*dT*dG*dT*dA*e[5mC]*e[5mC]*eT*eG*eT) [compound 547615]
% inhibition [1, 3]: 84%
percent inhibition of PKK at 0.19 μM [2, 6]: 20%
percent inhibition of PKK at 0.56 μM [2, 6]: 26%
percent inhibition of PKK at 1.67 μM [2, 6]: 41%
percent inhibition of PKK at 5.00 μM [2, 6]: 84%
IC50 [2, 7]: 1400 nM

547616 (antisense eT*eG*eT*e[5mC]*e[5mC]*dT*dA*dT*dA*dT*d[5mC]*dA*d[5mC]*dT*dG*eT*eA*e[5mC]*e[5mC]*eT) [compound 547616]
% inhibition [1, 3]: 86%
percent inhibition of PKK at 0.19 μM [2, 8]: 26%
percent inhibition of PKK at 0.56 μM [2, 8]: 50%
percent inhibition of PKK at 1.67 μM [2, 8]: 72%
percent inhibition of PKK at 5.00 μM [2, 8]: 89%
IC50 [2, 9]: 600 nM

547617 (antisense e[5mC]*eT*eG*eT*e[5mC]*d[5mC]*dT*dA*dT*dA*dT*d[5mC]*dA*d[5mC]*dT*eG*eT*eA*e[5mC]*e[5mC]) [compound 547617]
% inhibition [1, 3]: 91%
percent inhibition of PKK at 0.19 μM [2, 10]: 52%
percent inhibition of PKK at 0.56 μM [2, 10]: 66%
percent inhibition of PKK at 1.67 μM [2, 10]: 77%
percent inhibition of PKK at 5.00 μM [2, 10]: 93%
IC50 ([2]; 4 point dose response, Table 36): 200 nM
percent inhibition of PKK mRNA, 0.19 μM [2]: 17%
percent inhibition of PKK mRNA, 0.56 μM [2]: 37%
percent inhibition of PKK mRNA, 1.67 μM [2]: 79%
percent inhibition of PKK mRNA, 5.00 μM [2]: 98%
IC50 ([2]; 0.19-5.00 μM): 700 nM

547618 (antisense eA*e[5mC]*eT*eG*eT*d[5mC]*d[5mC]*dT*dA*dT*dA*dT*d[5mC]*dA*d[5mC]*eT*eG*eT*eA*e[5mC]) [compound 547618]
% inhibition [1, 3]: 87%
percent inhibition of PKK at 0.19 μM [2, 11]: 0%
percent inhibition of PKK at 0.56 μM [2, 11]: 0%
percent inhibition of PKK at 1.67 μM [2, 11]: 73%
percent inhibition of PKK at 5.00 μM [2, 11]: 98%
IC50 [2, 12]: 1300 nM

547622 (antisense eG*eT*e[5mC]*eA*e[5mC]*dT*dG*dT*dA*d[5mC]*d[5mC]*dT*dA*dT*dA*eA*e[5mC]*eT*e[5mC]*eT) [compound 547622]
% inhibition [1, 3]: 88%
percent inhibition of PKK at 0.19 μM [2, 11]: 0%
percent inhibition of PKK at 0.56 μM [2, 11]: 47%
percent inhibition of PKK at 1.67 μM [2, 11]: 79%
percent inhibition of PKK at 5.00 μM [2, 11]: 90%
IC50 [2, 12]: 900 nM

547632 (antisense eT*e[5mC]*eA*e[5mC]*eT*dG*dT*d[5mC]*d[5mC]*dT*dA*dT*dA*dT*d[5mC]*eA*e[5mC]*eT*e[5mC]*eT) [compound 547632]
% inhibition [1, 13]: 87%
percent inhibition of PKK at 0.19 μM [2, 8]: 44%
percent inhibition of PKK at 0.56 μM [2, 8]: 47%
percent inhibition of PKK at 1.67 μM [2, 8]: 81%
percent inhibition of PKK at 5.00 μM [2, 8]: 97%
IC50 [2, 9]: 600 nM
percent inhibition of PKK mRNA, 0.19 μM [2]: 0%
percent inhibition of PKK mRNA, 0.56 μM [2]: 0%
percent inhibition of PKK mRNA, 1.67 μM [2]: 63%
percent inhibition of PKK mRNA, 5.00 μM [2]: 91%
IC50 ([2]; 0.19-5.00 μM): 1600 nM

547633 (antisense eA*eT*e[5mC]*eA*e[5mC]*dT*dG*dT*d[5mC]*d[5mC]*dT*dA*dT*dA*dT*e[5mC]*eA*e[5mC]*eT*e[5mC]) [compound 547633]
% inhibition [1, 13]: 87%
percent inhibition of PKK at 0.19 μM [2, 8]: 12%
percent inhibition of PKK at 0.56 μM [2, 8]: 46%
percent inhibition of PKK at 1.67 μM [2, 8]: 78%
IC50 [2, 9]: 700 nM

547636 (eG*eT*eA*eT*e[5mC]*dA*d[5mC]*dT*dG*dT*dA*d[5mC]*dT*dA*dG*eT*eT*eT*eT*e[5mC]; antisense) [compound 547636]
% inhibition [1, 13]: 86%
percent inhibition of PKK at 0.19 μM [2, 6]: 0%
percent inhibition of PKK at 0.56 μM [2, 6]: 24%
percent inhibition of PKK at 1.67 μM [2, 6]: 79%
percent inhibition of PKK at 5.00 μM [2, 6]: 94%
IC50 [2, 7]: 1100 nM

547637 (eA*eG*eT*eA*eT*d[5mC]*dA*d[5mC]*dT*dG*dT*dA*d[5mC]*dT*dA*eG*eT*eT*eT*eT; antisense) [compound 547637]
% inhibition [1, 13]: 88%
percent inhibition of PKK at 0.19 μM [2, 11]: 10%
percent inhibition of PKK at 0.56 μM [2, 11]: 21%
percent inhibition of PKK at 1.67 μM [2, 11]: 36%
percent inhibition of PKK at 5.00 μM [2, 11]: 82%
IC50 [2, 12]: 1800 nM

547647 (eG*eT*e[5mC]*e[5mC]*eT*dA*dT*dA*dT*d[5mC]*dA*d[5mC]*dT*dG*dT*eA*e[5mC]*e[5mC]*eT*eA; antisense) [compound 547647]
% inhibition [1, 13]: 92%
percent inhibition of PKK at 0.19 μM [2, 4]: 1%
percent inhibition of PKK at 0.56 μM [2, 4]: 70%
percent inhibition of PKK at 1.67 μM [2, 4]: 72%
IC50 [2, 5]: 800 nM

547694 (antisense eG*eT*e[5mC]*eA*e[5mC]*dT*dG*dT*dA*d[5mC]*d[5mC]*dT*dA*dT*dA*eA*e[5mC]*eT*eG*eT) [compound 547694]
% inhibition [1, 14]: 92%
percent inhibition of PKK at 0.19 μM [2, 4]: 0%
percent inhibition of PKK at 0.56 μM [2, 4]: 29%
percent inhibition of PKK at 1.67 μM [2, 4]: 67%
percent inhibition of PKK at 5.00 μM [2, 4]: 90%
IC50 [2, 5]: 1200 nM

547712 (antisense e[5mC]*e[5mC]*e[5mC]*e[5mC]*eA*dT*dG*dG*dT*dA*d[5mC]*d[5mC]*dA*dA*dA*eG*e[5mC]*e[5mC]*eA*eT) [compound 547712]
% inhibition [1, 14]: 79%
percent inhibition of PKK at 0.19 μM [2, 15]: 0%
percent inhibition of PKK at 0.56 μM [2, 15]: 5%
percent inhibition of PKK at 1.67 μM [2, 15]: 21%
percent inhibition of PKK at 5.00 μM [2, 15]: 62%
IC50 [2, 16]: 3800 nM

547718 (eA*eT*eA*eA*eA*dG*dT*dG*d[5mC]*dG*dA*dT*dT*dA*dA*eG*e[5mC]*e[5mC]*e[5mC]*e[5mC]; antisense) [compound 547718]
% inhibition [1, 14]: 86%
percent inhibition of PKK at 0.19 μM [2, 8]: 36%
percent inhibition of PKK at 0.56 μM [2, 8]: 12%
percent inhibition of PKK at 1.67 μM [2, 8]: 69%
percent inhibition of PKK at 5.00 μM [2, 8]: 74%
IC50 [2, 9]: 1600 nM

547722 (e[5mC]*eT*e[5mC]*e[5mC]*eA*dG*dT*d[5mC]*dA*d[5mC]*d[5mC]*dA*d[5mC]*d[5mC]*dA*eT*eT*eG*e[5mC]*e[5mC]; antisense) [compound 547722]
% inhibition [1, 14]: 80%
percent inhibition of PKK at 0.19 μM [2, 15]: 0%
percent inhibition of PKK at 0.56 μM [2, 15]: 15%
percent inhibition of PKK at 1.67 μM [2, 15]: 32%
percent inhibition of PKK at 5.00 μM [2, 15]: 73%
IC50 [2, 16]: 2400 nM

547728 (eG*eA*eG*eA*eT*dT*dG*dG*dT*dG*dG*dT*dG*dG*dG*eT*eG*eG*e[5mC]*eA; antisense) [compound 547728]
% inhibition [1, 17]: 88%
percent inhibition of PKK at 0.19 μM [2, 15]: 0%
percent inhibition of PKK at 0.56 μM [2, 15]: 2%
percent inhibition of PKK at 1.67 μM [2, 15]: 16%
percent inhibition of PKK at 5.00 μM [2, 15]: 61%
IC50 [2, 16]: 4400 nM

547731 (eG*eG*eA*eT*eT*dG*dG*dT*dG*dG*dT*dG*dG*dG*dA*eT*eT*eG*eG*eT; antisense) [compound 547731]
% inhibition [1, 17]: 49%
percent inhibition of PKK at 0.19 μM [2, 11]: 0%
percent inhibition of PKK at 0.56 μM [2, 11]: 0%
percent inhibition of PKK at 1.67 μM [2, 11]: 17%
percent inhibition of PKK at 5.00 μM [2, 11]: 56%
IC50 [2, 12]: 5000 nM

547780 (antisense e[5mC]*e[5mC]*e[5mC]*e[5mC]*eT*d[5mC]*dT*dT*dA*dA*dA*dT*dA*dG*d[5mC]*eA*e[5mC]*eA*eT*eG) [compound 547780]
% inhibition [1, 17]: 67%
percent inhibition of PKK at 0.19 μM [2, 15]: 0%
percent inhibition of PKK at 0.56 μM [2, 15]: 10%
percent inhibition of PKK at 1.67 μM [2, 15]: 36%
percent inhibition of PKK at 5.00 μM [2, 15]: 55%
IC50 [2, 16]: 3900 nM
